Measured values as given in US4931553A, “Platinum-polymer complexes and their use as antitumor agents” (priority 1988, dated 1990).

What was measured:
[1] = Aqueous solubility of polymeric platinum prodrugs; type: physicochemical; conditions: for Aqueous solubility / Appearance: Table I; for Appearance: appearance of the aqueous solution; for Solubility at RT: room temperature; for Solubility of the complex: temperature not stated
From the text: Three polyacrylic acid polymers of weight average molecular weight 2000, 5000, 15,000 were used as ligands for complexation with Pt(DACH)(NO3)2 to determine the effect of molecular weight on the physical properties and antitumor properties of the complexes. […] In addition to polyacrylic acids, polymethacrylic acid of 15,000 weight average molecular weight and isotactic and syndiotactic polymethacrylic acid polymers of about 5000 Mw were used as ligands. The polyacrylates were complexed with Pt(DACH)(NO3)2 in aqueous solution at pH 4-6.

[2] = Aqueous solubility of polymeric platinum prodrugs; type: physicochemical; conditions: Table I; for Appearance: appearance of the aqueous solution
L1210 murine tumor = L1210 murine tumor model in BDF1 mice (T/C% and cures); type: in vivo
Protocol: Some of the specific compounds of the examples above were tested by NCI against L1210 murine tumor model in BDF1 mice. The tumored mice were injected ip with solutions of compounds on days 1, 5, and 9 after the cell innoculum. The results of the experiments were evaluated on day 30 and are expressed as the quotient of the median survival time in days of test animals divided by median day of death of the untreated control mice, multiplied by 100 (T/C%). Mice with no sign of tumor on day 30 are considered as cured.
T/C = Ratio of test evaluation to control evaluation expressed as
percentage. More precisely, T/C = Median survival time of test animals
× 100 (Median survival time of control).

Lewis Lung = assay: Inhibition of tumor weight, Lewis Lung implanted subcutaneously; type: in vivo, mice; conditions: day 30
Protocol: (§1) In addition to the L1210 tumor line, Pt(trans-DACH)carboxyamylose (Pt:Polymer=1:6) was screened against additional murine tumor models. In these experiments, tumor of a known weight was implanted subcutaneously to the mice. The mice were then treated with the compound on day 1, 5, 9 schedule. On day 30, the tumors were reweighed and the results are expressed as percent inhibition of tumor weight.

CA - 755 Adenocarcinoma = assay: Inhibition of tumor weight, CA-755 Adenocarcinoma implanted subcutaneously; type: in vivo, mice; conditions: day 30
Protocol: as §1

[3] = test system: x5563 Plasma Cell Myeloma; assay: Inhibition of tumor weight, x5563 Plasma Cell Myeloma implanted subcutaneously; type: in vivo, mice; conditions: day 30
Protocol: as §1

M5 ovarian Carcinoma = assay: Inhibition of tumor weight, M5 ovarian Carcinoma implanted subcutaneously; type: in vivo, mice; conditions: day 30
Protocol: as §1

[4] = test system: tumors responsive to cisplatin and/or DACH-Pt and bisplatinum complex therapy; assay: Anti-tumor activity (statement for the pyran copolymer complex); conditions: in vivo
[5] = cited from earlier work
animal tumors = conditions: in vivo; cited from earlier work
malignancies in humans = conditions: in vivo; cited from earlier work
[6] = Table 2, 10 mg/kg, ip days 1, 5, 9, day 30
[7] = Table 2, 10 mg/kg, ip days 1, 5, 9, no sign of tumor on day 30
[8] = Table 2, 20 mg/kg, ip days 1, 5, 9, day 30
[9] = Table 2, 20 mg/kg, ip days 1, 5, 9, no sign of tumor on day 30

Pt(trans-DACH)Carboxyamylose (176,000 Mw) [Example 16]
Aqueous solubility [1]: 725 mg/mL | Appearance [1]: clear | Solubility of the complex on slight warming ([1]; on slight warming): greater than 25 mg per ml

Pt(trans-DACH)Carboxy Dextran (11.700 Mw) [Example 8]
Solubility at 50° C. [1]: 25 mg/mL | Aqueous solubility [2]; 2: 25 mg/mL | Appearance [2]; 2: cloudy

Pt(trans-DACH)CO oxyalginic Acid (75.000 Mw) [Example 15]
Solubility in 10% sodium bicarbonate solution ([1]; 10% sodium bicarbonate, 40° C.): 25 mg/mL

Pt(trans-DACH)Carboxy Dextran, 11,700 Mw (58% Degree of Oxidation) [Example 12]
Solubility at RT [1]: 100 mg/mL

Pt(trans-DACH)Polyacrylate (5000 Mw) [Example 2]
Solubility in water (in words) ([1]; water): very soluble in water

Pt(trans-DACH)Carboxy Amylose (4,800 Mw) [Example 6]
Solubility at 50° C. [1]: 20 mg/mL

Pt(trans-DACH)Carboxy Amylopectin (176.000 Mw) [Example 7]
Aqueous solubility [1]: 25 mg/mL | Appearance [1]: clear | T/C (L1210 murine tumor; [6]): 337% | Cures (L1210 murine tumor; [7]): 4/6 | T/C (L1210 murine tumor; [8]): 314% | Cures (L1210 murine tumor; [9]): 2/6 | Cures (L1210 murine tumor; Table 3, 10 mg/kg): 4/6 | T/C (L1210 murine tumor; Table 3, 10 mg/kg): 337 | Cures (L1210 murine tumor; Table 3, 20 mg/kg): 2/6 | T/C (L1210 murine tumor; Table 3, 20 mg/kg): 314

Pt(trans DACH)Carboxy amylopectin (176,000 Mw) [Example 17]
Aqueous solubility [1]: 725 mg/mL | Appearance [1]: clear | Solubility of the complex [1]: greater than 25 mg per ml | T/C (L1210 murine tumor; [6]): 357% | Cures (L1210 murine tumor; [7]): 3/6 | T/C (L1210 murine tumor; [8]): 261% | Cures (L1210 murine tumor; [9]): 1/6

Pt(trans-DACH)Carboxy Dextran (40,000 Mw) [Example 18]
Aqueous solubility [1]: 730 mg/mL | Appearance [1]: clear | Solubility of the complex [1]: greater than 30 mg per ml

Pt(trans-DACH)Carboxy Dextran (11.700 Mw)
Aqueous solubility [2]; 6: 100 mg/mL | Appearance [2]; 6: clear

Pt(trans-DACH)Carboxy Dextran (47,000 Mw) [Example 10]
Solubility in water at room temperature and up to 50° C. (in words) ([1]; water, room temperature and up to 50° C.): insoluble in water at room temperature and up to 50 °C

Pt(trans-DACH)Carboxy Amylose (176.000 Mw) [Example 5]
% Inh. of tumor weight (Lewis Lung; dose 1.25, days 1, 5, 9): 20% | % Inh. of tumor weight (Lewis Lung; dose 2.5, days 1, 5, 9): 37% | % Inh. of tumor weight (Lewis Lung; dose 5, days 1, 5, 9): 34% | Aqueous solubility [1]: 10 mg/mL | Appearance [1]: clear | T/C (L1210 murine tumor; [6]): 269% | Cures (L1210 murine tumor; [7]): 1/6 | T/C (L1210 murine tumor; [8]): 269% | Cures (L1210 murine tumor; [9]): 2/6 | T/C (L1210 murine tumor; Table 2, 40 mg/kg, ip days 1, 5, 9, day 30): 292% | Cures (L1210 murine tumor; Table 2, 40 mg/kg, ip days 1, 5, 9, no sign of tumor on day 30): 2/6 | % Inh. of tumor weight (CA - 755 Adenocarcinoma; dose 5, days 1, 5, 9): 69% | % Inh. of tumor weight (CA - 755 Adenocarcinoma; dose 10, days 1, 5, 9): 81% | % Inh. of tumor weight (CA - 755 Adenocarcinoma; dose 20, days 1, 5, 9): 94% | % Inh. of tumor weight ([3]; dose 5, days 1, 5, 9): 100% | % Inh. of tumor weight ([3]; dose 10, days 1, 5, 9): 100% | % Inh. of tumor weight ([3]; dose 20, days 1, 5, 9): 100% | % Inh. of tumor weight (M5 ovarian Carcinoma; dose 5, days 1, 5, 9): 64% | % Inh. of tumor weight (M5 ovarian Carcinoma; dose 10, days 1, 5, 9): 86% | % Inh. of tumor weight (M5 ovarian Carcinoma; dose 20, days 1, 5, 9): 99%

Pt(trans-DACH)Carboxy Polygalacturonic Acid [Example 14]
Solubility in aqueous solution (in words) ([1]; aqueous solution): Insoluble in aqueous solution

Pt(trans-DACH)Carboxy Dextran Sulfate (6,000 Mw) [Example 11]
Solubility at RT [1]: 50 mg/mL

Pt(trans-DACH)polyacrylate (2000 Mw) [Example 1]
Solubility in water (in words) ([1]; water): very soluble in water

Pt(trans-DACH)Carboxy Dextran (21,200 Mw) [Example 9]
Solubility at RT [1]: 100 mg/mL

Pt(trans-DACH)Carboxy Amylose (50% degree of Oxidation) [Example 13]
Solubility at 50° C. [1]: 25 mg/mL

(trans-DACH) Pyran Copolymer Complex [Example 19]
Anti-tumor activity (in words) [4]: exhibits anti-tumor activity

DACH-Pt(OH2)Cl2 (IV)
Solubility of platinum-amine complexes (at most sparingly soluble) ([5]; at most sparingly soluble): < 1 mg/mL

Pt(trans-DACH)Carboxy Amylopectin (176.000 Mw) [Example 7 (freeze-dried)]
Solubility at 50° C. [1]: 25 mg/mL

cis-[Pt(NH3)2 Cl2 ] [cisplatin]
T/C (L1210 murine tumor; Table 3, 5 mg/kg): 175 ± 5 | Effectiveness against animal tumors (in words) (animal tumors): effective against several types of animal tumors | Use in human malignancies (in words) (malignancies in humans): used successfully in treating certain types of malignancies in humans | Water solubility ([5]; in water): about 1 mg/ml
